Residue numbers refer to the chain shown, from its start.
Tests used:
human TRPV3 = molecular target: T1, human TRPV3 (Homo sapiens, UniProt Q8NET8); test: Re-evaluation of screening hits as TRPV3 agonists; format: cell-based; conditions: Table 1
T1 sequence (Q8NET8 1-790): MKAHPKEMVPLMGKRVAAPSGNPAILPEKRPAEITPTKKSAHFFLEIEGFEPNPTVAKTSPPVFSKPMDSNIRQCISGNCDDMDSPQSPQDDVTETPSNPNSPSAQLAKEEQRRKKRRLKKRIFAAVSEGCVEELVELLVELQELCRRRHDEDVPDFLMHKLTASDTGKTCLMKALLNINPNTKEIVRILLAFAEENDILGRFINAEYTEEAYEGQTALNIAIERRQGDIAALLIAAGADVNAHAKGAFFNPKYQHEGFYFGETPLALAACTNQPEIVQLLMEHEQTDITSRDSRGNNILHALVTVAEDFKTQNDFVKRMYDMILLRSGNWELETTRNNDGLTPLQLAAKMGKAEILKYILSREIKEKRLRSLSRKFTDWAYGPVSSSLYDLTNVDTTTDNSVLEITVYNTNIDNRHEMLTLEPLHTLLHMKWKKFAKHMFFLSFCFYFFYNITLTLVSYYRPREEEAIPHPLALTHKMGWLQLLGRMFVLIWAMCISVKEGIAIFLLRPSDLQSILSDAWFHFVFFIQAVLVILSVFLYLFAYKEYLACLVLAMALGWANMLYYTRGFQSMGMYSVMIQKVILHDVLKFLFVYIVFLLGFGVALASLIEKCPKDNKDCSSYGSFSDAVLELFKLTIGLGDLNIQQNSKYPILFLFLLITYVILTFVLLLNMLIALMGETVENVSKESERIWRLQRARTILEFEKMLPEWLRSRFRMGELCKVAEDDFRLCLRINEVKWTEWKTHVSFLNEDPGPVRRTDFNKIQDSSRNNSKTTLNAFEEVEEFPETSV

TRPV3-H426N = molecular target: T2, TRPV3-H426N (Homo sapiens, UniProt Q8NET8, H426N); test: Calcium flux in HEK-293 cells transiently transfected with TRPV3-H426N; format: cell-based
T2 sequence (Q8NET8 1-790 H426N): T1 sequence (Q8NET8 1-790) with H426N

[1] = test system: neomycin-induced hair cell loss; conditions: ref Coffin et al. [2010]; cited from earlier work
human TRPV1 = human TRPV1 (Homo sapiens, UniProt Q8NER1); test: Calcium flux in HEK-293 cells overexpressing TRPV1; format: cell-based; conditions: concentrations up to 1 mmol/L
human TRPV4 = human TRPV4 (Homo sapiens, UniProt Q9HBA0); test: Calcium flux in HEK-293 cells overexpressing TRPV4; format: cell-based; conditions: concentrations up to 1 mmol/L
human TRPA1 = human TRPA1 (Homo sapiens, UniProt O75762); test: Calcium flux in HEK-293 cells overexpressing TRPA1; format: cell-based; conditions: concentrations up to 1 mmol/L
human TRPA1, sequence (O75762 whole entry): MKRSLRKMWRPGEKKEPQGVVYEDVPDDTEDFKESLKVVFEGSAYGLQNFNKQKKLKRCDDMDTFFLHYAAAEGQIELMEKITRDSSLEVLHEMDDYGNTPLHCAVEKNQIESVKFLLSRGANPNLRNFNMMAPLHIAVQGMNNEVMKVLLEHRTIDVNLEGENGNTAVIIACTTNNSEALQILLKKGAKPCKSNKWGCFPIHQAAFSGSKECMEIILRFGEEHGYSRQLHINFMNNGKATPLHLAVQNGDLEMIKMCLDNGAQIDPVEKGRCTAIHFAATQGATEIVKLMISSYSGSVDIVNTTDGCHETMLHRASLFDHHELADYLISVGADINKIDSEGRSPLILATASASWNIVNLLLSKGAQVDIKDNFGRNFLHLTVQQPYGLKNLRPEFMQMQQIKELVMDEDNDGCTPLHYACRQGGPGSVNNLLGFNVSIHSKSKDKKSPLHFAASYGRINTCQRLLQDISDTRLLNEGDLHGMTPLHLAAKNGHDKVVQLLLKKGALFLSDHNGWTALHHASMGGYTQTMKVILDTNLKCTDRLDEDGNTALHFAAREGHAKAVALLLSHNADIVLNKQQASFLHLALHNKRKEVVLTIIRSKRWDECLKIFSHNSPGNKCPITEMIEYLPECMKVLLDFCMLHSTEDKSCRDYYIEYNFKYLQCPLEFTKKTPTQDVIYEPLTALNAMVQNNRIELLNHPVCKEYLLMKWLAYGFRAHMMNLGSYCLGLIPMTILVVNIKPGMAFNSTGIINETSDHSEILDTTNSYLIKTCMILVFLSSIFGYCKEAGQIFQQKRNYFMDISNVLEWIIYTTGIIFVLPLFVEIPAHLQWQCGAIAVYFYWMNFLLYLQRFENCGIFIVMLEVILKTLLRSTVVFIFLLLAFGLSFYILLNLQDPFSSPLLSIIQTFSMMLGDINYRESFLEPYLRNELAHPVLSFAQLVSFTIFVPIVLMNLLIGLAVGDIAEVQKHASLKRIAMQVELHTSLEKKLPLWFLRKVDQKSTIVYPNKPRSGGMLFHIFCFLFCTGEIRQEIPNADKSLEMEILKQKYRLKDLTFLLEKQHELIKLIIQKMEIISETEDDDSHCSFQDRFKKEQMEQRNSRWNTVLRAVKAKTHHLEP

human TRPV4, sequence (Q9HBA0 whole entry): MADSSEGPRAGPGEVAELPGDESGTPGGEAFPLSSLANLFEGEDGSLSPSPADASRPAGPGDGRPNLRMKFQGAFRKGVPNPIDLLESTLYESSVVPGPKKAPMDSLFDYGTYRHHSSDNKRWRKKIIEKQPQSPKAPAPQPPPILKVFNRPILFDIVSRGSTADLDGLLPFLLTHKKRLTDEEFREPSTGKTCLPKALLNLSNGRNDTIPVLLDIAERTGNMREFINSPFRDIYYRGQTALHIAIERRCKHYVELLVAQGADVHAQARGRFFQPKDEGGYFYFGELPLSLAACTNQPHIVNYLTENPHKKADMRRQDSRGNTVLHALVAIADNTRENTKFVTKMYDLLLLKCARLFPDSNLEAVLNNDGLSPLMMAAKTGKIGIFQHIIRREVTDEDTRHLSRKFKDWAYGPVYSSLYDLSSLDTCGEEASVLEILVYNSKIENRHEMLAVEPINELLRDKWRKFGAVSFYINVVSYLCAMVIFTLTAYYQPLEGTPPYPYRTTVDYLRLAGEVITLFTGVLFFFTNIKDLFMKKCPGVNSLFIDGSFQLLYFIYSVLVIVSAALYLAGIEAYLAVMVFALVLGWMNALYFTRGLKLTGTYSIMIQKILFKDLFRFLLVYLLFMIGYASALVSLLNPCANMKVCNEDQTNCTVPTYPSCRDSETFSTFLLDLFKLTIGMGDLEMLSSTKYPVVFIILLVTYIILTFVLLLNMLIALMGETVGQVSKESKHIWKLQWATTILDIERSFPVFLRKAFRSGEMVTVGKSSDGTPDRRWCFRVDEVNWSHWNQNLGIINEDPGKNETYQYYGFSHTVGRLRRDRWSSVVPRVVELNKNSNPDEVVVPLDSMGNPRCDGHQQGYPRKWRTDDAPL
human TRPV1, sequence (Q8NER1 whole entry): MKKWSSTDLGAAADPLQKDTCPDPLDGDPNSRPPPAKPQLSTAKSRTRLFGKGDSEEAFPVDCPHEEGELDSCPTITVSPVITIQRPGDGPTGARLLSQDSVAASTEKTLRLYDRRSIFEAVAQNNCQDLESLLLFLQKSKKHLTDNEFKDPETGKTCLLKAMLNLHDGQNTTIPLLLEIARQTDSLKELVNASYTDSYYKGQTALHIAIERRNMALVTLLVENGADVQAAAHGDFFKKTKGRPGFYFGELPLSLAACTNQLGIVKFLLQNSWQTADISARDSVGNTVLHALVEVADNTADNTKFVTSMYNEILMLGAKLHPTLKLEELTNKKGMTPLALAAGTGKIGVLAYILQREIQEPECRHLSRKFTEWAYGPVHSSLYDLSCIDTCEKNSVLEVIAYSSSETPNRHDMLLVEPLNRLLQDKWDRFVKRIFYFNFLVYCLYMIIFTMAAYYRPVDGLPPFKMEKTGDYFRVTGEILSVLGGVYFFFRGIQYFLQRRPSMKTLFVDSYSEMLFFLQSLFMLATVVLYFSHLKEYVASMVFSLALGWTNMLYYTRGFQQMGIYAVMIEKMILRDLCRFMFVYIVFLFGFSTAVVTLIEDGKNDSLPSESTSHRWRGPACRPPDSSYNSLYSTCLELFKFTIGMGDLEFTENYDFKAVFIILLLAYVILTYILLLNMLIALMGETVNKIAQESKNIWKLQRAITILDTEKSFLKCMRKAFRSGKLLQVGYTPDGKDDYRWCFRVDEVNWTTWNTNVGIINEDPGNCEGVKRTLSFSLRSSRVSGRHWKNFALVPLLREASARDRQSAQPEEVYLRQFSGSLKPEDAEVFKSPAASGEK

Comment(s): re-evaluation as TRPV3 agonist (human TRPV3): TRPV3-selective agonist
calcium flux in TRPV3-H426N relative to TRPV3-WT (TRPV3-H426N; agonist 100 μmol/L): reduced activation relative to TRPV3-WT
calcium flux in TRPV3-H426N relative to TRPV3-WT (TRPV3-H426N; agonist 200 μmol/L): did not reduce TRPV3 activation
activation of TRPV1 (human TRPV1): not observed
activation of TRPV4 (human TRPV4): not observed
activation of TRPA1 (human TRPA1): not observed
Compound: CCN(CC)CCOC(=O)C(c1ccccc1)C1CCCCC1 (stereo not shown) [drofenine]
effect on neomycin-induced hair cell loss [1]: inhibitor of neomycin-induced hair cell loss

Reference: PMC4115637 (Pharmacology Research & Perspectives, 2014)
